Article PMC6150173, “Tryptophan-Containing Cyclic Decapeptides with Activity against Plant Pathogenic Bacteria” (Molecules : A Journal of Synthetic Chemistry and Natural …, 2017)
Peptide text beside a SMILES is read from it.

Key:
Format in all cases: cell-based
[1] = test system: Erwinia amylovora PMV6076; experiment: Antibacterial activity (MIC), in vitro growth inhibition; conditions: Table S1, MIC range
Experimental: (§1) Erwinia amylovora PMV6076 (Institut National de la Recherche Agronomique, Angers, France), Pseudomonas syringae pv. syringae EPS94 (Institut de Tecnologia Agroalimentària, Universitat de Girona, Spain), and Xanthomonas axonopodis pv. vesicatoria 2133-2 (Instituto Valenciano de Investigaciones Agrarias, Valencia, Spain) were used as bacterial strains. They were stored and cultivated as previously described.
(§2) The minimum inhibitory concentration (MIC) was analyzed as previously described at 0.8, 1.6, 3.1, 6.2, 12.5, 25 and 50 μM [20].

[2] = test system: Pseudomonas syringae pv. syringae EPS94; experiment: as above; conditions: Table S1, MIC range
Experimental: as §1, §2

[3] = test system: Xanthomonas axonopodis pv. vesicatoria 2133-2; conditions: Table S1, MIC range
Experimental: as §1, §2

[4] = test system: erythrocyte suspensions of human blood; experiment: Hemolytic activity, hemoglobin release; conditions: human blood erythrocytes 5% v/v, absorbance 540 nm, percentage compared to melittin, three replicates; for Hemolysis (%) at 50 µM: peptide 50 μM (table prints 50 µM); for Hemolysis (%) at 125 µM: peptide 125 μM (table prints 125 µM)
Experimental: The hemolytic activity of the compounds was evaluated at 50 and 125 μM by determining hemoglobin release from erythrocyte suspensions of human blood (5% v/v) (Oxoid) using absorbance at 540 nm, as previously described. Three replicates for each peptide concentration were used.

Structure (SMILES)	MIC Ea [1] [µM]	MIC Pss [2] [µM]	MIC Xav [3] [µM]	Hemolysis (%) at 50 µM [4] [%]	Hemolysis (%) at 125 µM [4]
CC(C)C[C@@H]1NC(=O)[C@H](CCCCN)NC(=O)[C@H](CCCCN)NC(=O)[C@H](CCC(N)=O)NC(=O)[C@H](CC(C)C)NC(=O)[C@H](CC(C)C)NC(=O)[C@H](CCCCN)NC(=O)[C@H](Cc2c[nH]c3ccccc23)NC(=O)[C@H](CCCCN)NC(=O)[C@H](CCCCN)NC1=O [BPC064W, c(KKLKKWKLLQ)] (cyclo(KKLKKWKLLQ))	6.2 to 12.5	3.1 to 6.2	6.2 to 12.5	17	25%
CC(C)C[C@@H]1NC(=O)[C@H](CCCCN)NC(=O)[C@H](CC(C)C)NC(=O)[C@H](CCC(N)=O)NC(=O)[C@H](CCCCN)NC(=O)[C@H](CCCCN)NC(=O)[C@H](CC(C)C)NC(=O)[C@H](Cc2c[nH]c3ccccc23)NC(=O)[C@H](CCCCN)NC(=O)[C@H](CCCCN)NC1=O [BPC144W, c(LKLKKWLKKQ)] (cyclo(KKQLKLKKWL))	12.5 to 25	3.1 to 6.2	1.6 to 3.1	16	21%
CC(C)C[C@@H]1NC(=O)[C@H](CCCCN)NC(=O)[C@H](CCCCN)NC(=O)[C@H](CCCCN)NC(=O)[C@H](CCC(N)=O)NC(=O)[C@H](CCCCN)NC(=O)[C@H](CCCCN)NC(=O)[C@H](CC(C)C)NC(=O)[C@H](Cc2c[nH]c3ccccc23)NC(=O)[C@H](CC(C)C)NC1=O [BPC128W, c(KKKLLWLKKQ)] (cyclo(KKKLLWLKKQ))	12.5 to 25	6.2 to 12.5	1.6 to 3.1	2	2%
CC(C)C[C@@H]1NC(=O)[C@H](CCCCN)NC(=O)[C@H](CC(C)C)NC(=O)[C@H](CCCCN)NC(=O)[C@H](CCC(N)=O)NC(=O)[C@H](CCCCN)NC(=O)[C@H](CCCCN)NC(=O)[C@H](CC(C)C)NC(=O)[C@H](Cc2c[nH]c3ccccc23)NC(=O)[C@H](CCCCN)NC1=O [BPC138W, c(KLKLKWLKKQ)] (cyclo(KKQKLKLKWL))	25 to 50	6.2 to 12.5	3.1 to 6.2	7	14%
CC(C)C[C@@H]1NC(=O)[C@H](CCCCN)NC(=O)[C@H](CC(C)C)NC(=O)[C@H](Cc2c[nH]c3ccccc23)NC(=O)[C@H](CCCCN)NC(=O)[C@H](CC(C)C)NC(=O)[C@H](CCCCN)NC(=O)[C@H](CCCCN)NC(=O)[C@H](CCCCN)NC(=O)[C@H](CCC(N)=O)NC1=O [BPC072W, c(KKKLKWLKLQ)] (cyclo(KKKLKWLKLQ))	12.5 to 25	3.1 to 6.2	1.6 to 3.1	7	9% and below 20%
CC(C)C[C@@H]1NC(=O)[C@H](CCCCN)NC(=O)[C@H](CCCCN)NC(=O)[C@H](Cc2c[nH]c3ccccc23)NC(=O)[C@H](CC(C)C)NC(=O)[C@H](CC(C)C)NC(=O)[C@H](CCCCN)NC(=O)[C@H](CCCCN)NC(=O)[C@H](CCCCN)NC(=O)[C@H](CCC(N)=O)NC1=O [BPC080W, c(KKKLLWKKLQ)] (cyclo(KKKLLWKKLQ))	12.5 to 25	6.2 to 12.5	0.8 to 1.6	3	4%
CC(C)C[C@@H]1NC(=O)[C@H](CCCCN)NC(=O)[C@H](CCC(N)=O)NC(=O)[C@H](CC(C)C)NC(=O)[C@H](CCCCN)NC(=O)[C@H](CC(C)C)NC(=O)[C@H](Cc2c[nH]c3ccccc23)NC(=O)[C@H](CCCCN)NC(=O)[C@H](CCCCN)NC(=O)[C@H](CCCCN)NC1=O [BPC076W, c(KLKKKWLKLQ)] (cyclo(KKKWLKLQKL))	6.2 to 12.5	6.2 to 12.5	1.6 to 3.1	15	21%
CC(C)C[C@@H]1NC(=O)[C@H](CCCCN)NC(=O)[C@H](CCCCN)NC(=O)[C@H](Cc2c[nH]c3ccccc23)NC(=O)[C@H](CCCCN)NC(=O)[C@H](CCCCN)NC(=O)[C@H](CC(C)C)NC(=O)[C@H](CC(C)C)NC(=O)[C@H](CCCCN)NC(=O)[C@H](CCC(N)=O)NC1=O [BPC094W, c(KLLKKWKKLQ)] (cyclo(KKLQKLLKKW))	25 to 50	6.2 to 12.5	3.1 to 6.2	35	42%
CC(C)C[C@@H]1NC(=O)[C@H](CCCCN)NC(=O)[C@H](CCCCN)NC(=O)[C@H](Cc2c[nH]c3ccccc23)NC(=O)[C@H](CCCCN)NC(=O)[C@H](CCCCN)NC(=O)[C@H](CCCCN)NC(=O)[C@H](CC(C)C)NC(=O)[C@H](CCCCN)NC(=O)[C@H](CCC(N)=O)NC1=O [BPC198W, c(KLKKKWKKLQ)] (cyclo(KKKWKKLQKL))	25 to 50	25 to 50	3.1 to 6.2	2	4%
CC(C)C[C@@H]1NC(=O)[C@H](CCC(N)=O)NC(=O)[C@H](CC(C)C)NC(=O)[C@H](CCCCN)NC(=O)[C@H](CC(C)C)NC(=O)[C@H](Cc2c[nH]c3ccccc23)NC(=O)[C@H](CCCCN)NC(=O)[C@H](CCCCN)NC(=O)[C@H](CCCCN)NC(=O)[C@H](CCCCN)NC1=O [BPC078W, c(LKKKKWLKLQ)] (cyclo(KKKKWLKLQL))	25 to 50	6.2 to 12.5	0.8 to 1.6	3	6%
CC(C)C[C@@H]1NC(=O)[C@H](CCCCN)NC(=O)[C@H](CC(C)C)NC(=O)[C@H](CC(C)C)NC(=O)[C@H](CCCCN)NC(=O)[C@H](CCC(N)=O)NC(=O)[C@H](CCCCN)NC(=O)[C@H](CCCCN)NC(=O)[C@H](CCCCN)NC(=O)[C@H](Cc2c[nH]c3ccccc23)NC1=O [BPC154W, c(KLLKLWKKKQ)] (cyclo(KKKQKLLKLW))	25 to 50	3.1 to 6.2	1.6 to 3.1	4	7%
CC(C)C[C@@H]1NC(=O)[C@H](CCCCN)NC(=O)[C@H](CCC(N)=O)NC(=O)[C@H](CC(C)C)NC(=O)[C@H](CC(C)C)NC(=O)[C@H](CCCCN)NC(=O)[C@H](Cc2c[nH]c3ccccc23)NC(=O)[C@H](CCCCN)NC(=O)[C@H](CCCCN)NC(=O)[C@H](CCCCN)NC1=O [BPC066W, c(KLKKKWKLLQ)] (cyclo(KKKWKLLQKL))	6.2 to 12.5	6.2 to 12.5	6.2 to 12.5	33	41%
CC(C)C[C@@H]1NC(=O)[C@H](CCCCN)NC(=O)[C@H](Cc2c[nH]c3ccccc23)NC(=O)[C@H](CCCCN)NC(=O)[C@H](CCCCN)NC(=O)[C@H](CCCCN)NC(=O)[C@H](CC(C)C)NC(=O)[C@H](CC(C)C)NC(=O)[C@H](CCC(N)=O)NC(=O)[C@H](CCCCN)NC1=O [BPC126W, c(LLKKKWKLKQ)] (cyclo(KKKWKLKQLL))	25 to 50	6.2 to 12.5	1.6 to 3.1	5	9%
CC(C)C[C@@H]1NC(=O)[C@H](CCCCN)NC(=O)[C@H](CCCCN)NC(=O)[C@H](Cc2c[nH]c3ccccc23)NC(=O)[C@H](CCCCN)NC(=O)[C@H](CC(C)C)NC(=O)[C@H](CC(C)C)NC(=O)[C@H](CCCCN)NC(=O)[C@H](CCCCN)NC(=O)[C@H](CCC(N)=O)NC1=O [BPC088W, c(KKLLKWKKLQ)] (cyclo(KKLLKWKKLQ))	12.5 to 25	6.2 to 12.5	1.6 to 3.1	14	19%
CC(C)C[C@@H]1NC(=O)[C@H](CCCCN)NC(=O)[C@H](CCCCN)NC(=O)[C@H](Cc2c[nH]c3ccccc23)NC(=O)[C@H](CC(C)C)NC(=O)[C@H](CCCCN)NC(=O)[C@H](CCCCN)NC(=O)[C@H](CC(C)C)NC(=O)[C@H](CCCCN)NC(=O)[C@H](CCC(N)=O)NC1=O [BPC084W, c(KLKKLWKKLQ)] (cyclo(KKLQKLKKLW))	12.5 to 25	12.5 to 25	1.6 to 3.1	54	60%
CC(C)C[C@@H]1NC(=O)[C@H](CCCCN)NC(=O)[C@H](CCC(N)=O)NC(=O)[C@H](CCCCN)NC(=O)[C@H](CCCCN)NC(=O)[C@H](CCCCN)NC(=O)[C@H](Cc2c[nH]c3ccccc23)NC(=O)[C@H](CCCCN)NC(=O)[C@H](CC(C)C)NC(=O)[C@H](CC(C)C)NC1=O [BPC160W, c(KLLLKWKKKQ)] (cyclo(KKKQKLLLKW))	–	6.2 to 12.5	6.2 to 12.5	3	6%
CC(C)C[C@@H]1NC(=O)[C@H](CCCCN)NC(=O)[C@H](Cc2c[nH]c3ccccc23)NC(=O)[C@H](CCCCN)NC(=O)[C@H](CC(C)C)NC(=O)[C@H](CCCCN)NC(=O)[C@H](CC(C)C)NC(=O)[C@H](CCCCN)NC(=O)[C@H](CCC(N)=O)NC(=O)[C@H](CCCCN)NC1=O [BPC016W, c(KLKLKWKLKQ)] (cyclo(KLKLKWKLKQ))	–	12.5 to 25	3.1 to 6.2	25	32%
